Consider 48 molecules from US11466010B2, “Toll-like receptor 8 (TLR8) specific antagonists and methods of making and uses thereof” (The Regents of the University of Colorado, a body corporate, priority 2017, dated 2022).

Molecules are shown by their SMILES. Where only a bound is given, the exact number is not on record here.

The target in one test is T1, human TLR8 (Homo sapiens, UniProt Q9NR97).
T1 construct: expressed in transfected cells; host or cells: HEK-Blue Null1 cells, lentiviral infection
T1 sequence (Q9NR97 27-1041): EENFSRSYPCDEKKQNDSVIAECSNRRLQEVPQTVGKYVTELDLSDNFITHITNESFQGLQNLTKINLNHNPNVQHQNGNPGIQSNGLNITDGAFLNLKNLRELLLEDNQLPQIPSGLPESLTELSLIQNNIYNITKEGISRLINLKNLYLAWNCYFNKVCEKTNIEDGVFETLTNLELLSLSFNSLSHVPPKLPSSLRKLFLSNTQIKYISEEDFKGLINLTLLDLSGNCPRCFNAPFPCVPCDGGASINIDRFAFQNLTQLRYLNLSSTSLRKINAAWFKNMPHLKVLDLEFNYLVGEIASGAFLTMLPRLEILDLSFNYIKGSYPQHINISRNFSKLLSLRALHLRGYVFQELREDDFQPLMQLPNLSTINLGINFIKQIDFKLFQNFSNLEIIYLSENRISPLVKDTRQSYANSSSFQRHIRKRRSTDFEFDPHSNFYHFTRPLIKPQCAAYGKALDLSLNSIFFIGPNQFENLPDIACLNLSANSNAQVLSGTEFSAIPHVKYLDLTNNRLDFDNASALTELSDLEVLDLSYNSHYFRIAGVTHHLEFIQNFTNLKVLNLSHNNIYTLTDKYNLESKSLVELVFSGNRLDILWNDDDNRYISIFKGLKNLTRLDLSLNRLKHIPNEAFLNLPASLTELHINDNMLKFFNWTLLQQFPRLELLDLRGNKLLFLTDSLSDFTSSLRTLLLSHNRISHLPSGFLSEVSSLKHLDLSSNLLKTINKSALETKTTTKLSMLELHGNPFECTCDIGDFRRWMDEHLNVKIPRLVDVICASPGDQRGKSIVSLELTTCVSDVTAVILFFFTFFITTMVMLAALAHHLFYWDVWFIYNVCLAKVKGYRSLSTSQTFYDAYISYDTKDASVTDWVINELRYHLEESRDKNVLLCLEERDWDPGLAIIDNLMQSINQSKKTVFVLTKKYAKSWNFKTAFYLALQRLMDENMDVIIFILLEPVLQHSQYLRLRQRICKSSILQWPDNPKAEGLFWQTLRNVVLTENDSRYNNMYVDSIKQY
Description: SEAP reporter assay in HEK-Blue TLR8 cells, R848-induced TLR8 signaling. It counts as cell-based.
Details: not given
The method, then: SEAP reporter assay: HEK-Blue TLR8 cells were seeded in tissue culture treated 96-well plates with a density of 7.5×10^4 cells/well in DMEM media supplemented with 10% FBS (phosphatases deactivated with heat). […] Plates are then incubated in humidified incubators containing 5% CO2 at 37° C. for 24 h, after which, 30 μL of culture media was transfer to a new plate and 100 μL of Quanti-Blue (Invivogen) was added, the plate was then incubated at 37° C. till color change (30 min-1 h). Readout of absorbance at 620 nm was quantified using Beckman-Coulter DTX 880 Multimode Detector. […] SEAP assays for each sample were conducted with three biological replicates, each in triplicate.
To establish a robust high throughput assay for TLR8 inhibitors, the inventors first engineered a cell line stably overexpressing the human TLR8 whose activation can be reported by the Secreted Embryonic Alkaline Phosphatase (SEAP) assay. TLR8-overexpresing HEK-Blue cells were prepared by lentiviral infection of HEK-Blue Null1 cells that have null or low basal expression of endogenous TLR genes. […] The TLR8-mediated NF-κB activation can be assessed by measuring the SEAP activity.
(In general: In a reporter assay the amount or activity of a reporter protein is the signal.)
As usually defined, the IC50 is the point on the concentration scale where inhibition reaches its midpoint. Read a low IC50 as greater potency in that assay. Consider `Cc1cc(-c2ccnc3cc(Cl)ccc23)ccc1O` [CU-CPT9c, 4-(7-Chloro-4-quinolinyl)-2-methyl-phenol], for which it took 0.001 ± 0.0002 µM to reach half-maximal inhibition (IC50).

The same test, now with this note: 1(2H)-phthalazinone and quinoline derivatives in HEK-Blue hTLR8 cells.
With `COc1ccc(-c2ccc(O)c(C)c2)c2ccccc12` [Compound 1, 1-Methoxy-4-(4-hydroxy-3-methylphenyl)-naphthalene], the midpoint of inhibition, the IC50, lay at 7.03 ± 0.36 µM.

Turning to `Cc1cc(-c2ccc(O)c3ccccc23)ccc1O` [Compound 2, 4-(4-Hydroxy-3-methylphenyl)-1-naphthol], the IC50 amounted to 0.48 ± 0.43 µM.

In turn, `Cc1cc(-c2ccc(N)c3ccccc23)ccc1O` [Compound 3, 1-Amino-4-(4-hydroxy-3-methylphenyl)-naphthalene] returned a half-inhibitory concentration (IC50) of 2.72 ± 0.31 µM.

On to `Cc1cc(-c2nn(C)c(=O)c3ccccc23)cc(C)c1O` [Compound 4, 4-(4-Hydroxy-3,5-dimethylphenyl)-2-methyl-1(2H)-Phthalazinone], for which the IC50 worked out at 0.17 ± 0.02 µM.

Take `O=c1[nH]nc(-c2ccccc2)c2ccccc12` [Compound 5, 4-Phenyl-1(2H)-phthalazinone]: the concentration for half-maximal inhibition (IC50) is > 20 µM.

Take `Cn1nc(-c2ccccc2)c2ccccc2c1=O` [Compound 6, 2-Methyl-4-phenyl-1(2H)-Phthalazinone]: the IC50 was > 20 µM.

On to `Cc1ccc(C)c(-c2n[nH]c(=O)c3ccccc23)c1` [Compound 7, 4-(2,5-Dimethylphenyl)-1(2H)-Phthalazinone], for which the IC50 is > 20 µM.

Regarding `Cc1cc(C)cc(-c2n[nH]c(=O)c3ccccc23)c1` [Compound 8, 4-(3,5-Dimethylphenyl)-1(2H)-phthalazinone], the IC50 is > 20 µM.

In the case of `COc1ccc(-c2n[nH]c(=O)c3ccccc23)cc1` [Compound 9, 4-(4-Methoxyphenyl)-1(2H)-phthalazinone], the 50% inhibitory concentration (IC50) is > 20 µM.

Take `COc1ccc(-c2nn(C)c(=O)c3ccccc23)cc1` [Compound 10, 4-(4-Methoxyphenyl)-2-methyl-1(2H)-phthalazinone]: the IC50 is > 20 µM.

Turning to `COc1c(C)cc(-c2n[nH]c(=O)c3ccccc23)cc1C` [Compound 11, 4-(4-Methoxy-3,5-dimethylphenyl)-1(2H)-phthalazinone], the IC50 was > 20 µM.

As to `Cc1cc(-c2n[nH]c(=O)c3ccccc23)cc(C)c1C(=O)O` [Compound 13, 4-(4-Carboxylic-3,5-dimethylphenyl)-1(2H)-phthalazinone], the IC50 was > 20 µM.

In the case of `Cc1cc(-c2n[nH]c(=O)c3ccccc23)ccc1C(=O)O` [Compound 14, 4-(4-Carboxylic-3-methylphenyl)-1(2H)-phthalazinone], the IC50 was > 20 µM.

In the case of `Cc1cc(-c2n[nH]c(=O)c3ccccc23)cc(C)c1N` [Compound 15], the IC50 was > 20 µM.

`COC(=O)c1ccc(-c2n[nH]c(=O)c3ccccc23)cc1C` [Compound 16, 4-(4-Carbomethoxyl-3-methylphenyl)-1(2H)-phthalazinone] gave an IC50 of 8.51 ± 3.15 µM.

Molecule `CC(=O)Oc1c(C)cc(-c2n[nH]c(=O)c3ccccc23)cc1C` [Compound 17, 4-(4-Acetoxy-3,5-dimethylphenyl)-1(2H)-phthalazinone] had an IC50 of 4.76 ± 0.42 µM. Against the preceding molecule, the IC50 is about 1.8-fold lower.

Consider `CC(=O)Oc1ccc(-c2n[nH]c(=O)c3ccccc23)cc1C` [Compound 18, 4-(4-Acetoxy-3-methylphenyl)-1(2H)-phthalazinone], for which the half-maximal inhibitory concentration (IC50) is 3.77 ± 0.45 µM.

On to `O=c1[nH]nc(-c2ccc(O)cc2)c2ccccc12` [Compound 19, 4-(4-Hydroxyphenyl)phthalazin-1(2H)-one], for which the IC50 is > 20 µM.

Molecule `Cc1cc(-c2n[nH]c(=O)c3ccccc23)cc(C)c1O` [Compound 20, 4-(4-Hydroxy-3,5-dimethylphenyl)-1(2H)-phthalazinone] had a half-inhibitory concentration (IC50) of 3.91 ± 0.2 µM.

As for `Cc1cc(-c2n[nH]c(=O)c3ccccc23)ccc1O` [Compound 21, 4-(4-Hydroxy-3-methylphenyl)-1(2H)-phthalazinone], the concentration for half-maximal inhibition (IC50) is 1.3 ± 0.32 µM.

In turn, `CCc1cc(-c2n[nH]c(=O)c3ccccc23)ccc1O` [Compound 22, 4-(4-Hydroxy-3-ethylphenyl)-1(2H)-phthalazinone] had an IC50 of 2.73 ± 0.85 µM. Compared with the last molecule, the IC50 is about 2.1-fold higher.

As for `CC(C)c1cc(-c2n[nH]c(=O)c3ccccc23)cc(C(C)C)c1O` [Compound 23, 4-(4-Hydroxy-3,5-diisopropylphenyl)-1(2H)-phthalazinone], the 50% inhibitory concentration (IC50) was > 20 µM.

Turning to `Cc1cc(-c2n[nH]c(=O)c3ccccc23)c(C)c(C)c1O` [Compound 24, 4-(4-Hydroxy-2,3,5-trimethylphenyl)-1(2H)-phthalazinone], the concentration for half-maximal inhibition (IC50) is > 20 µM.

Turning to `O=c1[nH]nc(-c2ccc(O)c3ccccc23)c2ccccc12` [Compound 25, 4-(4-Hydroxy-naphthyl)-1(2H)-phthalazinone], the IC50 was > 20 µM.

Regarding `O=c1[nH]nc(-c2ccc(O)c(C(F)(F)F)c2)c2ccccc12` [Compound 26, 4-(4-Hydroxy-3-trifluoromethylphenyl)-1(2H)-phthalazinone], the IC50 was > 20 µM.

On to `COc1ccc(-c2n[nH]c(=O)c3ccccc23)cc1C(F)(F)F` [Compound 27, 4-(4-Methoxyl-3-trifluoromethylphenyl)-1(2H)-phthalazinone], for which the IC50 was > 20 µM.

The same test, now with this note: HEK-Blue TLR8 cells.
Turning to `NC(=O)c1cnn2c(-c3cccc(C(F)(F)F)c3)ccnc12` [Compound 6a], the “fold higher potency than 6c” value is recorded as 2 fold and the “fold higher potency than 6d” value amounted to 10 fold.

Consider `NC(=O)c1cnn2c(-c3cccnc3)ccnc12` [Compound 6l], for which the IC50 was > 20 µM.

The same test, now with this note: HEK-Blue TLR8 cells, R848 as agonist.
As for `NC(=O)c1cnn2c(-c3cccc(C(F)(F)F)c3)ccnc12` [Compound 6a], the concentration for half-maximal inhibition (IC50) came out at 0.13 µM.

`NC(=O)c1cnn2c(-c3ccccc3)ccnc12` [Compound 6e] yielded a half-maximal inhibitory concentration (IC50) of 0.76 µM.

Still in this test, the particulars now being: pyrazolo[1,5-a]pyrimidine derivatives in HEK-Blue hTLR8 cells; ± SD, at least three biological replicates.
Take `CCOC(=O)c1cnn2c(-c3cccc(C(F)(F)F)c3)ccnc12` [Compound 3a]: the concentration for half-maximal inhibition (IC50) is 0.21 ± 0.043 µM.

The molecule `CCOC(=O)c1cnn2c(-c3cccc(C)c3)ccnc12` [Compound 3b] had a half-maximal inhibitory concentration (IC50) of 0.092 ± 0.015 µM.

As for `NC(=O)c1cnn2c(-c3ccccc3C(F)(F)F)ccnc12` [Compound 6c], half-maximal inhibition (IC50) required 0.23 ± 0.14 µM.

Take `NC(=O)c1cnn2c(-c3ccc(C(F)(F)F)cc3)ccnc12` [Compound 6d]: the 50% inhibitory concentration (IC50) turned out to be 1.22 µM. Against the preceding molecule, the IC50 is about 5.3-fold higher.

`NC(=O)c1cnn2c(-c3cccc([N+](=O)[O-])c3)ccnc12` [Compound 6f] registered a half-maximal inhibitory concentration (IC50) of 0.22 ± 0.07 µM.

Turning to `NC(=O)c1cnn2c(-c3cccc(F)c3)ccnc12` [Compound 6g], the concentration for half-maximal inhibition (IC50) amounted to 0.45 ± 0.09 µM. Against the preceding molecule, the IC50 is about 2-fold higher.

The molecule `NC(=O)c1cnn2c(-c3cccc(Cl)c3)ccnc12` [Compound 6h] came in with an IC50 of 0.28 ± 0.1 µM.

In turn, `NC(=O)c1cnn2c(-c3cc(C(F)(F)F)cc(C(F)(F)F)c3)ccnc12` [Compound 6i] registered a concentration for half-maximal inhibition (IC50) of 0.25 ± 0.13 µM.

As for `COc1ccccc1-c1ccnc2c(C(N)=O)cnn12` [Compound 6j], half-maximal inhibition (IC50) was put at 2.31 µM.

In turn, `COc1cccc(-c2ccnc3c(C(N)=O)cnn23)c1` [Compound 6k] displayed a half-maximal inhibitory concentration (IC50) of 1.2 µM.

Take `NC(=O)c1cnn2c(-c3cccnc3)ccnc12` [Compound 6l]: the half-maximal inhibitory concentration (IC50) was > 20 µM.

Consider `CCc1cccc(-c2ccnc3c(C(N)=O)cnn23)c1` [Compound 6m], for which the IC50 stood at 0.12 ± 0.023 µM.

As for `CNC(=O)c1cnn2c(-c3cccc(C(F)(F)F)c3)ccnc12` [Compound 6n], the IC50 amounted to 1.7 µM.

Still in this test, the particulars now being: quinoline derivatives in HEK-Blue hTLR8 cells; ± SD, at least three biological replicates.
The molecule `Cc1cc(-c2ccc(O)c(C)c2)c2ccccc2n1` [Compound 11c] returned an IC50 of 0.086 ± 0.011 µM.

Take `Cc1cc(-c2cccc3ccccc23)ccc1O` [Compound 11d]: the 50% inhibitory concentration (IC50) was > 20 µM.

Consider `O=c1[nH]nc(-c2ccccc2)c2ccccc12` [Compound 14a], for which the IC50 was > 20 µM.

In the case of `Cc1cc(-c2n[nH]c(=O)c3ccccc23)ccc1O` [Compound 14b], half-maximal inhibition (IC50) was put at 1.3 ± 0.32 µM.

The test is the same for the next values; noted with them: secondary amide analog versus primary amide.
Take `CNC(=O)c1cnn2c(-c3cccc(C(F)(F)F)c3)ccnc12` [Compound 6n]: the “fold reduction in potency” value stood at 25 fold.

The same test, now with this note: up to 20 μM.
In the case of `Cc1cccc(-c2ccnc3c(C(=O)O)cnn23)c1` [Compound 4b], the “inhibitory activity against TLR8 signaling” value was “did not show any inhibitory activity”.

Turning to `CCN(CC)C(=O)c1cnn2c(-c3cccc(C(F)(F)F)c3)ccnc12` [Compound 6o], the “inhibitory activity against TLR8 signaling” value is given as “no significant activity”.
